This note sets out measurements from BindingDB's records for doi:10.1016/s0960-894x(98)00494-6 (University of Michigan, 1999).

The assay in a line: Compound was evaluated for inhibition of Protease.

One may read the IC50 as the concentration that inhibits the measured activity by half. High values mean weaker potency in that assay, low ones greater potency in that assay. For `C[C@H](NC(=O)[C@H](Cc1ccccc1)NC(=O)OCc1ccccc1)C(=O)[C@H]1CO1` [[(S)-1-((S)-1-Methyl-2-(R)-oxiranyl-2-oxo-ethylcarbamoyl)-2-phenyl-ethyl]-carbamic acid benzyl ester], 1000 nM corresponded to half-maximal inhibition (IC50).
For `C[C@H](NC(=O)[C@H](Cc1ccccc1)NC(=O)OCc1ccccc1)C(=O)[C@@H]1CO1` [[(S)-1-((S)-1-Methyl-2-(S)-oxiranyl-2-oxo-ethylcarbamoyl)-2-phenyl-ethyl]-carbamic acid benzyl ester] the value was 80 nM; for `O=C(N[C@@H](Cc1ccccc1)C(=O)N[C@@H](CCc1ccccc1)C(=O)[C@H]1CO1)OCc1ccccc1` [{(S)-1-[(S)-1-((R)-Oxiranecarbonyl)-3-phenyl-propylcarbamoyl]-2-phenyl-ethyl}-carbamic acid benzyl ester], greater than 1000 nM.
For `O=C(N[C@@H](Cc1ccccc1)C(=O)N[C@@H](CCc1ccccc1)C(=O)[C@@H]1CO1)OCc1ccccc1` [{(S)-1-[(S)-1-((S)-Oxiranecarbonyl)-3-phenyl-propylcarbamoyl]-2-phenyl-ethyl}-carbamic acid benzyl ester] the value was 10 nM.
